Source: US5691344A, “Vasoconstrictive substituted dihydropyranopyridines” (Janssen Pharmaceutica, N.V., priority 1993, dated 1997)
Structures can show the parent of a compound that is named as a salt.

test system: basilar arteries; assay: Constriction of isolated basilar artery segments of pigs (serotonin-like response, % of response to serotonin); conditions: Sus scrofa; constrictive response expressed as percentage of previous response to serotonin (3×10^-7 M); Krebs-Henseleit solution, 37° C.; read-out: IC50 (the source's name)
Text: The compounds of formula (I), the pharmaceutically acceptable acid-additionsalts and stereochemically isomeric forms thereof have interesting pharmacological properties: they show 5HT1-like agonistic activity. The compounds of the present invention have a remarkable vasoconstrictor activity. They are useful to prevent and treat conditions which are related to vasodilatation. For instance, they are useful in the treatment of conditions characterized by or associated with cephalic pain, e.g. cluster headache and headache associated with vascular disorders, especially migraine. These compounds are also useful in the treatment of venous insufficiency and in the treatment of conditions associated with hypotension. The vasoconstrictor activity of the compounds of formula (I) can be determined using an in vitro-test as is described in "Instantaneous changes of alpha-adrenoreceptor affinity caused by moderate cooling in canine cutaneous veins" in the American Journal of Physiology 234(4), H330-H337, 1978; or in the test described in the pharmacological example, wherein the serotonin-like response of the compounds of the present invention was tested on the basilar arteries of pigs.
Segments of basilar arteries taken from pigs (anaesthetised with sodium pentobarbital) were mounted for recording of isometric tension in organ baths. The preparations were bathed in Krebs--Henseleit solution. The solution was kept at 37° C. and gassed with a mixture of 95% O2 -5% CO2. The preparations were stretched until a stable basal tension of 2 grams was obtained.
The preparations were made to constrict with serotonin (3×10^-7 M). The response to the addition of serotonin was measured and subsequently the serotonin was washed away. This procedure was repeated until stable responses were obtained. Subsequently the test compound was administered to the organ bath and the constriction of the preparation was measured. This constrictive response was expressed as a percentage of the response to serotonin as measured previously.

SMILES | EC50
CSc1nccc(NCCCNCC2CCc3cccnc3O2)n1 (racemic) [Co. No. 5] | 0.26 µM
c1cnc2c(c1)CCC(CNCCCNC1=NCCCN1)O2 (racemic) [Co. No. 2, N-[(3,4-dihydro-2H-pyrano[2,3-b]pyridin-2-yl)methyl]-N'-(1,4,5,6-tetrahydro-2-pyrimidinyl)-1,3-propanediamine dihydrochloride. 2-propanolate (2:1). monohydrate] | 0.13 µM
c1ccc(NCCCNCC2CCc3cccnc3O2)nc1 (racemic) [Co. No. 6] | 0.12 µM

Other lines, results leading:

EC50 | SMILES
0.34 µM | [O-][n+]1cccc2c1OC(CNCCCNc1ncccn1)CC2 (racemic) [Co. No. 3, (±)-N-(3,4-dihydro-2H-pyrano[2,3-b]pyridon-2-yl)methyl]-N'-2-pyrimidinyl-1,3-propanediamine, N-oxide ethanedioate (2:1). monohydrate]
0.071 µM | c1cnc(NCCCNCC2CCc3cccnc3O2)nc1 (racemic) [Co. No. 1, (±)-N-[(3,4-dihydro-2H-pyrano[2,3-b]-pyridin-2-yl)methyl]-N'-2-pyrimidinyl-1,3-propanediamine trihydrochloride. 2-propanolate(1:1). monohydrate]
